Paper PMC4272272 (PLoS ONE, 2014)
Where two headings read alike, the source gives them in different places.

How the values were obtained:
[1] = human, in vivo; cited from earlier work
[2] = set-up: method as in PMID 23445717; details: cited from earlier work
[3] = Safety assessment (adverse events, physical examination, vital signs) after liraglutide; type: in vivo, human; details: off-hemodialysis (day 2) or on-hemodialysis (day 3); 0.6 or 0.9 mg s.c.; 10 patients
Procedure: The severity and causal relationship to liraglutide of all treatment-related adverse events in these patients were assessed by the investigators. A physical examination, including vital signs (blood pressure and heart rate) and clinical laboratory biochemical tests, was also performed on each patient.

[4] = tested on: plasma glucose; details: CGM, mean ± SD, n = 10
Procedure: CGM was performed both off-hemodialysis (day 2) and on-hemodialysis (day 3).
The mean, maximum, and minimum glucose concentrations; SD; and MAGE were analyzed using a paired t-test and 95% confidence interval (CI) for the mean ratio (on-hemodialysis/off-hemodialysis). Because these values could be logarithmically transformed, the transformed data were used for analyses. […] In these cases, the original non-transformed values were analyzed by paired t-test. […] Values of p<0.05 were considered significant.

[5] = set-up: method as in earlier work; details: ref 2 (Ishida et al., 2011) of supplement, cited from earlier work
[6] = tested on: albumin and α-acidic glycoprotein; details: plasma protein binding; cited from earlier work
Text: Insulin treatment remains the main therapy for the control of hyperglycemia in diabetic patients with ESRD requiring hemodialysis, but it sometimes induces severe hypoglycemia.

[7] = cited from earlier work; for Liraglutide AUC lower than in healthy subjects, on average: single dose, ref 1 (Jacobsen et al., 2009) of supplement

exenatide
AUC0–∞ in non-diabetic patients with ESRD relative to healthy controls [1]: 3.37 times | Cmax in non-diabetic patients with ESRD relative to healthy controls [1]: 1.38 times

CCCCCCCCCCCCCCCC(=O)N[C@@H](CCC(=O)NCCCC[C@H](NC(=O)[C@H](C)NC(=O)[C@H](C)NC(=O)[C@H](CCC(N)=O)NC(=O)CNC(=O)[C@H](CCC(=O)O)NC(=O)[C@H](CC(C)C)NC(=O)[C@H](Cc1ccc(O)cc1)NC(=O)[C@H](CO)NC(=O)[C@H](CO)NC(=O)[C@@H](NC(=O)[C@H](CC(=O)O)NC(=O)[C@H](CO)NC(=O)[C@@H](NC(=O)[C@H](Cc1ccccc1)NC(=O)[C@@H](NC(=O)CNC(=O)[C@H](CCC(=O)O)NC(=O)[C@H](C)NC(=O)[C@@H](N)Cc1cnc[nH]1)[C@@H](C)O)[C@@H](C)O)C(C)C)C(=O)N[C@@H](CCC(=O)O)C(=O)N[C@@H](Cc1ccccc1)C(=O)N[C@H](C(=O)N[C@@H](C)C(=O)N[C@@H](Cc1c[nH]c2ccccc12)C(=O)N[C@@H](CC(C)C)C(=O)N[C@H](C(=O)N[C@@H](CCCNC(=N)N)C(=O)NCC(=O)N[C@@H](CCCNC(=N)N)C(=O)NCC(=O)O)C(C)C)[C@@H](C)CC)C(=O)O [liraglutide]
Adverse events ([2]; 0.3 mg/day, nine diabetic Japanese patients with ESRD): no adverse events | Mean period of hypoglycemia after liraglutide administration ([2]; 0.3 mg, diabetic patients with ESRD undergoing hemodialysis): approximately 50 min/day | Adverse events, including signs of hypoglycemia [3]: No adverse events | AUC during 24 hr in hyperglycemia (>180 mg/dL) ([4]; off-hemodialysis (day 2)): 7746.0 ± 17246.4 mg·min/dL | MAGE (mean amplitude of glycemic excursions) ([4]; off-hemodialysis (day 2)): 55.6 ± 27.4 mg/dL | Minimum glucose level ([4]; off-hemodialysis (day 2)): 92.7 ± 27.1 mg/dL | Time during 24 hr in hyperglycemia (>180 mg/dL) ([4]; off-hemodialysis (day 2)): 214.5 ± 388.4 min | AUC during 24 hr in hyperglycemia (>180 mg/dL) ([4]; on-hemodialysis (day 3)): 11427.5 ± 19184.4 mg·min/dL | MAGE (mean amplitude of glycemic excursions) ([4]; on-hemodialysis (day 3)): 90.0 ± 65.7 mg/dL | Minimum glucose level ([4]; on-hemodialysis (day 3)): 88.4 ± 21.4 mg/dL | Time during 24 hr in hyperglycemia (>180 mg/dL) ([4]; on-hemodialysis (day 3)): 210.0 ± 282.9 min | Patients withdrawn from liraglutide treatment due to nausea ([5]; 19 patients switched from insulin): Two patients | Hypoglycemia symptoms after the switch to liraglutide ([5]; 30% of the subjects complained before the switch): not observed | Glycosylated haemoglobin 1c (HbA1c) after one month of liraglutide ([5]; from 5.3±0.5 before the switch from insulin, p= 0.07, 19 patients): 5.1±0.5 | Glycoalbumin (GA) after one-month treatment of liraglutide ([5]; from 21.0±2.2 before the switch from insulin, p= 0.02, 19 patients): 19.4±2.4% | Liraglutide binding to albumin and α-acidic glycoprotein [6]: approximately 99% | Liraglutide AUC lower than in healthy subjects, on average ([7]; end-stage renal disease): 26% | Liraglutide AUC lower than in healthy subjects, on average ([7]; mild renal impairment): 33% | Liraglutide AUC lower than in healthy subjects, on average ([7]; moderate renal impairment): 14% | Liraglutide AUC lower than in healthy subjects, on average ([7]; severe renal impairment): 27% | Adverse events ([7]; single injection 0.75 mg, non-diabetic Caucasian patients with varying degrees of renal impairment): 2 events of vomiting and 1 event of nausea
